# Reference: PubChem BioAssay AID2060501 (Molecular Pharmacology Branch, DTP, NCI, 2025)
# Tested on: 282377-053-R-J1-PDC complex spheroids, viability
# Test: Anticancer human tumor 282377-053-R-J1-PDC patient-derived colon adenocarcinoma cell line growth inhibition [GQUAD]
# Conditions: for IC50: curve of first compound; for viability, T/C: stronger effect = lower value
# Summary of the method: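 Multi-cell-type spheroids of tumor cells with HUVEC and mesenchymal stem cells, treated with drug combinations. Concentrations descend in half-log steps from near clinical Cmax, or from 10 microM where Cmax is unknown; viability read-out.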
# [1] = second compound 0.0316 µM, first compound 0.0316 µM
# [2] = second compound 0.0316 µM, first compound 0.1 µM
# [3] = second compound 0.0316 µM, first compound 0.316 µM
# [4] = second compound 0.0316 µM, first compound 1 µM
# [5] = second compound 0.0316 µM, first compound 3.16 µM
# [6] = second compound 0.0316 µM, first compound 10 µM
# [7] = second compound 0.1 µM, first compound 0.0316 µM
# [8] = second compound 0.1 µM, first compound 0.1 µM
# [9] = second compound 0.1 µM, first compound 0.316 µM
# [10] = second compound 0.1 µM, first compound 1 µM
# [11] = second compound 0.1 µM, first compound 3.16 µM
# [12] = second compound 0.1 µM, first compound 10 µM
# [13] = second compound 0.316 µM, first compound 0.0316 µM
# [14] = second compound 0.316 µM, first compound 0.1 µM
# [15] = second compound 0.316 µM, first compound 0.316 µM
# [16] = second compound 0.316 µM, first compound 1 µM
# [17] = second compound 0.316 µM, first compound 3.16 µM
# [18] = second compound 0.316 µM, first compound 10 µM
# [19] = second compound 1 µM, first compound 0.0316 µM
# [20] = second compound 1 µM, first compound 0.1 µM
# [21] = second compound 1 µM, first compound 0.316 µM
# [22] = second compound 1 µM, first compound 1 µM
# [23] = second compound 1 µM, first compound 3.16 µM
# [24] = second compound 1 µM, first compound 10 µM
# [25] = second compound 3.16 µM, first compound 0.0316 µM
# [26] = second compound 3.16 µM, first compound 0.1 µM
# [27] = second compound 3.16 µM, first compound 0.316 µM
# [28] = second compound 3.16 µM, first compound 1 µM
# [29] = second compound 3.16 µM, first compound 3.16 µM
# [30] = second compound 3.16 µM, first compound 10 µM
# [31] = second compound 10 µM, first compound 0.0316 µM
# [32] = second compound 10 µM, first compound 0.1 µM
# [33] = second compound 10 µM, first compound 0.316 µM
# [34] = second compound 10 µM, first compound 1 µM
# [35] = second compound 10 µM, first compound 3.16 µM
# [36] = second compound 10 µM, first compound 10 µM
# 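Note: spheroids exposed to compounds for 7 days before readout.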
# 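Throughout, for viability, T/C: percent of vehicle DMSO control viability with 100% = untreated-like growth.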
smiles,measurement,setting,value
C=CCn1c(=O)c2cnc(Nc3ccc(N4CCN(C)CC4)cc3)nc2n1-c1cccc(C(C)(C)O)n1 + Cc1[nH]c2ccc(F)cc2c1-c1nc2c3cccnc3c3ncccc3c2[nH]1,IC50,second compound 0.0316 µM,4.25 µM
same,IC50,second compound 0.1 µM,3.54 µM
same,IC50,second compound 0.316 µM,3.23 µM
same,IC50,second compound 1 µM,1.95 µM
same,IC50,second compound 3.16 µM,0.0447 µM
same,IC50,second compound 10 µM,< 0.0316 µM
same,"viability, T/C",[1],101%
same,"viability, T/C",[2],61.7%
same,"viability, T/C",[3],95%
same,"viability, T/C",[4],73.2%
same,"viability, T/C",[5],63.7%
same,"viability, T/C",[6],15.3%
same,"viability, T/C",[7],80.2%
same,"viability, T/C",[8],65.2%
same,"viability, T/C",[9],79.8%
same,"viability, T/C",[10],62.2%
same,"viability, T/C",[11],56.5%
same,"viability, T/C",[12],12.7%
same,"viability, T/C",[13],91.6%
same,"viability, T/C",[14],70.5%
same,"viability, T/C",[15],77.7%
same,"viability, T/C",[16],70%
same,"viability, T/C",[17],51.4%
same,"viability, T/C",[18],12.8%
same,"viability, T/C",[19],84.5%
same,"viability, T/C",[20],71%
same,"viability, T/C",[21],72.6%
same,"viability, T/C",[22],59.5%
same,"viability, T/C",[23],44.3%
same,"viability, T/C",[24],11%
same,"viability, T/C",[25],50.3%
same,"viability, T/C",[26],49.1%
same,"viability, T/C",[27],24%
same,"viability, T/C",[28],16.9%
same,"viability, T/C",[29],12.7%
same,"viability, T/C",[30],2.18%
same,"viability, T/C",[31],20.7%
same,"viability, T/C",[32],41.4%
same,"viability, T/C",[33],16.9%
same,"viability, T/C",[34],11.4%
same,"viability, T/C",[35],7.59%
same,"viability, T/C",[36],1.56%
CC(C)(O)C1CCC(Nc2ccc3ncc(-c4cccc(C(F)(F)F)c4)n3n2)CC1 (stereo not drawn) + Cc1[nH]c2ccc(F)cc2c1-c1nc2c3cccnc3c3ncccc3c2[nH]1,IC50,second compound 0.0316 µM,> 10 µM
same,IC50,second compound 0.1 µM,> 10 µM
same,IC50,second compound 0.316 µM,> 10 µM
same,IC50,second compound 1 µM,> 10 µM
same,IC50,second compound 3.16 µM,> 10 µM
same,IC50,second compound 10 µM,2.9 µM
same,"viability, T/C",[1],107%
same,"viability, T/C",[2],95.9%
same,"viability, T/C",[3],114%
same,"viability, T/C",[4],103%
same,"viability, T/C",[5],86.1%
same,"viability, T/C",[6],76.9%
same,"viability, T/C",[7],122%
same,"viability, T/C",[8],103%
same,"viability, T/C",[9],91.5%
same,"viability, T/C",[10],95.3%
same,"viability, T/C",[11],103%
same,"viability, T/C",[12],73.3%
same,"viability, T/C",[13],107%
same,"viability, T/C",[14],96.7%
same,"viability, T/C",[15],87.7%
same,"viability, T/C",[16],95.1%
same,"viability, T/C",[17],103%
same,"viability, T/C",[18],91.9%
same,"viability, T/C",[19],115%
same,"viability, T/C",[20],95.8%
same,"viability, T/C",[21],88.8%
same,"viability, T/C",[22],118%
same,"viability, T/C",[23],81.4%
same,"viability, T/C",[24],92.3%
same,"viability, T/C",[25],88.8%
same,"viability, T/C",[26],71.1%
same,"viability, T/C",[27],70.7%
same,"viability, T/C",[28],79.2%
same,"viability, T/C",[29],100%
same,"viability, T/C",[30],63.1%
same,"viability, T/C",[31],61.9%
same,"viability, T/C",[32],51.5%
same,"viability, T/C",[33],75.6%
same,"viability, T/C",[34],48.4%
same,"viability, T/C",[35],46.9%
same,"viability, T/C",[36],42.7%
COc1ncnc(C2CC2)c1-c1ncc2cnn(Cc3ccc(-c4nc(C(F)(F)F)cn4C(C)C)cc3)c2n1 + Cc1[nH]c2ccc(F)cc2c1-c1nc2c3cccnc3c3ncccc3c2[nH]1,IC50,second compound 0.0316 µM,5.7 µM
same,IC50,second compound 0.1 µM,5.93 µM
same,IC50,second compound 0.316 µM,5.9 µM
same,IC50,second compound 1 µM,5.46 µM
same,IC50,second compound 3.16 µM,4.13 µM
same,IC50,second compound 10 µM,3.36 µM
same,"viability, T/C",[1],97.6%
same,"viability, T/C",[2],103%
same,"viability, T/C",[3],91.9%
same,"viability, T/C",[4],99.4%
same,"viability, T/C",[5],97.1%
same,"viability, T/C",[6],5.07%
same,"viability, T/C",[7],88.5%
same,"viability, T/C",[8],107%
same,"viability, T/C",[9],114%
same,"viability, T/C",[10],110%
same,"viability, T/C",[11],101%
same,"viability, T/C",[12],7.94%
same,"viability, T/C",[13],103%
same,"viability, T/C",[14],88.3%
same,"viability, T/C",[15],111%
same,"viability, T/C",[16],117%
same,"viability, T/C",[17],96.3%
same,"viability, T/C",[18],10.5%
same,"viability, T/C",[19],97.1%
same,"viability, T/C",[20],97.2%
same,"viability, T/C",[21],113%
same,"viability, T/C",[22],115%
same,"viability, T/C",[23],89.5%
same,"viability, T/C",[24],6.2%
same,"viability, T/C",[25],85.5%
same,"viability, T/C",[26],79.5%
same,"viability, T/C",[27],93.2%
same,"viability, T/C",[28],82.6%
same,"viability, T/C",[29],63.2%
same,"viability, T/C",[30],6.71%
same,"viability, T/C",[31],48.1%
same,"viability, T/C",[32],30.1%
same,"viability, T/C",[33],76.9%
same,"viability, T/C",[34],54.2%
same,"viability, T/C",[35],53.4%
same,"viability, T/C",[36],5.55%
O=C(NO)c1cnc(N2CCN(S(=O)(=O)c3ccc4ccccc4c3)CC2)nc1 + Cc1[nH]c2ccc(F)cc2c1-c1nc2c3cccnc3c3ncccc3c2[nH]1,IC50,second compound 0.0316 µM,0.0563 µM
same,IC50,second compound 0.1 µM,0.0553 µM
same,IC50,second compound 0.316 µM,0.0452 µM
same,IC50,second compound 1 µM,0.0402 µM
same,IC50,second compound 3.16 µM,< 0.0316 µM
same,IC50,second compound 10 µM,< 0.0316 µM
same,"viability, T/C",[1],78%
same,"viability, T/C",[2],17.6%
same,"viability, T/C",[3],18.6%
same,"viability, T/C",[4],19.8%
same,"viability, T/C",[5],24%
same,"viability, T/C",[6],30.6%
same,"viability, T/C",[7],78%
same,"viability, T/C",[8],18.6%
same,"viability, T/C",[9],16.4%
same,"viability, T/C",[10],18.6%
same,"viability, T/C",[11],21.2%
same,"viability, T/C",[12],26.9%
same,"viability, T/C",[13],63.6%
same,"viability, T/C",[14],18.4%
same,"viability, T/C",[15],17.1%
same,"viability, T/C",[16],18.1%
same,"viability, T/C",[17],21.4%
same,"viability, T/C",[18],22.9%
same,"viability, T/C",[19],58.7%
same,"viability, T/C",[20],15.1%
same,"viability, T/C",[21],19.3%
same,"viability, T/C",[22],13.7%
same,"viability, T/C",[23],16.1%
same,"viability, T/C",[24],21.8%
same,"viability, T/C",[25],30.5%
same,"viability, T/C",[26],7.85%
same,"viability, T/C",[27],7.14%
same,"viability, T/C",[28],6.02%
same,"viability, T/C",[29],6.61%
same,"viability, T/C",[30],7.81%
same,"viability, T/C",[31],19.7%
same,"viability, T/C",[32],7.83%
same,"viability, T/C",[33],5.03%
same,"viability, T/C",[34],6.51%
same,"viability, T/C",[35],4.71%
same,"viability, T/C",[36],7.67%
